In PubChem BioAssay AID330 (DTP/NCI, 2004):
Where “and” joins values, the source holds several entries; their conditions need not be identical. Equal entries are not always repeated. Inconclusive results and toxic doses are left out. The calls were made as follows: active = survival T/C of 150% or more; inactive = T/C below 125% in these data.

System: P388 leukemia ip, CD2F1 mice, survival T/C
Experiment: NCI In Vivo Anticancer Drug Screen. Data for tumor model P388 Leukemia (intraperitoneal) in CD2F1 (CDF1) mice
Details: endpoint: median survival time, higher = longer survival
Method in brief: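 Mice carrying the transplanted tumor received test compound or vehicle. Survival was recorded in each group, and the value is the treated-group measurement divided by that of the vehicle-treated control group.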

[1] = dose: 50.0 mg/kg/injection, schedule: Q01DX005 (ip), vehicle: saline with Tween-80
[2] = dose: 100.0 mg/kg/injection, schedule: Q01DX005 (ip), vehicle: saline with Tween-80
[3] = dose: 200.0 mg/kg/injection, schedule: Q01DX005 (ip), vehicle: saline with Tween-80
[4] = dose: 100.0 mg/kg/injection, schedule: Q01DX001 (ip), vehicle: saline
[5] = dose: 200.0 mg/kg/injection, schedule: Q01DX001 (ip), vehicle: saline
[6] = dose: 60.0 mg/kg/injection, schedule: Q01DX005 (ip), vehicle: Klucel (hydroxypropylcellulose) (HPC)
[7] = dose: 120.0 mg/kg/injection, schedule: Q01DX005 (ip), vehicle: Klucel (hydroxypropylcellulose) (HPC)
[8] = dose: 240.0 mg/kg/injection, schedule: Q01DX005 (ip), vehicle: Klucel (hydroxypropylcellulose) (HPC)
[9] = dose: 50.0 mg/kg/injection, schedule: Q01DX009 (ip), vehicle: saline
[10] = dose: 100.0 mg/kg/injection, schedule: Q01DX009 (ip), vehicle: saline
[11] = dose: 200.0 mg/kg/injection, schedule: Q01DX009 (ip), vehicle: saline
[12] = dose: 400.0 mg/kg/injection, schedule: Q01DX009 (ip), vehicle: saline
[13] = dose: 60.0 mg/kg/injection, schedule: Q01DX005 (ip), vehicle: saline with Tween-80
[14] = dose: 120.0 mg/kg/injection, schedule: Q01DX005 (ip), vehicle: saline with Tween-80
[15] = dose: 240.0 mg/kg/injection, schedule: Q01DX005 (ip), vehicle: saline with Tween-80
[16] = dose: 100.0 mg/kg/injection, schedule: Q04DX002 (ip), vehicle: saline with Tween-80
[17] = dose: 200.0 mg/kg/injection, schedule: Q04DX002 (ip), vehicle: saline with Tween-80
[18] = dose: 50.0 mg/kg/injection, schedule: Q01DX009 (ip), vehicle: saline with Tween-80
[19] = dose: 200.0 mg/kg/injection, schedule: Q04DX003 (ip), vehicle: saline with Tween-80
[20] = dose: 50.0 mg/kg/injection, schedule: Q04DX003 (ip), vehicle: saline with Tween-80
[21] = dose: 100.0 mg/kg/injection, schedule: Q01DX009 (ip), vehicle: saline with Tween-80
[22] = dose: 200.0 mg/kg/injection, schedule: Q01DX009 (ip), vehicle: saline with Tween-80

Measured: T/C

COc1ccc(C2=C[P+](c3ccccc3)(c3ccccc3)C=C(c3ccccc3)O2)cc1
inactive: dose: 0.75 mg/kg/injection, schedule: Q01DX005 (ip), vehicle: saline with Tween-80 100 % of control and 110 % of control | dose: 0.75 mg/kg/injection, schedule: Q01DX005 (ip), vehicle: saline 120 % of control | dose: 1.5 mg/kg/injection, schedule: Q01DX005 (ip), vehicle: saline with Tween-80 108 % of control and 119 % of control | dose: 1.5 mg/kg/injection, schedule: Q01DX005 (ip), vehicle: saline 110 % of control | dose: 3.0 mg/kg/injection, schedule: Q01DX005 (ip), vehicle: saline with Tween-80 110 % of control and 120 % of control | dose: 3.0 mg/kg/injection, schedule: Q01DX005 (ip), vehicle: saline 120 % of control | dose: 3.12 mg/kg/injection, schedule: Q01DX005 (ip), vehicle: saline with Tween-80 114 % of control | dose: 6.0 mg/kg/injection, schedule: Q01DX005 (ip), vehicle: saline with Tween-80 111 % of control | dose: 6.25 mg/kg/injection, schedule: Q01DX005 (ip), vehicle: saline with Tween-80 118 % of control

CN(C)/N=C/C=C1\N=C(c2ccccc2)OC1=O
inactive: [1] 107 % of control | [2] 104 % of control | [3] 106 % of control

CC(=O)Nc1cccc(/C(C)=N/NC(N)=O)c1
inactive: [1] 91 % of control | [2] 91 % of control | [3] 89 % of control

O=C(O)C1C(C(=O)O)C2(Cl)C(Cl)=C(Cl)C1(Cl)C2(Cl)Cl.[Co] (stereo not drawn)
inactive: dose: 50.0 mg/kg/injection, schedule: Q01DX001 (ip), vehicle: saline 109 % of control | [4] 109 % of control | [5] 109 % of control

Cc1nn(-c2ccccc2)c2c1C(c1ccccc1)C(C#N)=C(N)O2 (stereo not drawn)
inactive: dose: 50.0 mg/kg/injection, schedule: Q01DX009 (ip), vehicle: Klucel (hydroxypropylcellulose) (HPC) 100 % of control | dose: 100.0 mg/kg/injection, schedule: Q01DX009 (ip), vehicle: Klucel (hydroxypropylcellulose) (HPC) 100 % of control | dose: 200.0 mg/kg/injection, schedule: Q01DX009 (ip), vehicle: Klucel (hydroxypropylcellulose) (HPC) 100 % of control

O=C1OC2C=CC=CN2C(=O)C1Cc1ccccc1 (stereo not drawn)
inactive: [6] 105 % of control | [7] 102 % of control | [8] 100 % of control

COc1ccc(CC2c3cc(OC)c(OC)c(OC)c3CC[N+]2(C)C)cc1Oc1ccc(CC2c3cc4c(c(OC)c3CC[N+]2(C)C)OCO4)cc1 (stereo not drawn)
inactive: dose: 1.56 mg/kg/injection, schedule: Q04DX003 (ip), vehicle: saline 99 % of control | dose: 3.13 mg/kg/injection, schedule: Q04DX003 (ip), vehicle: saline 101 % of control

[O-][n+]1cc(Cl)cc(Cl)c1
inactive: dose: 25.0 mg/kg/injection, schedule: Q01DX009 (ip), vehicle: saline 100 % of control and 106 % of control | [9] 108 % of control and 96 % of control | [10] 100 % of control and 96 % of control | [11] 99 % of control and 102 % of control | [12] 99 % of control and 96 % of control

O=[N+]([O-])c1cc(I)c(O)c(/C=N/NS(=O)(=O)c2ccc(F)cc2)c1
inactive: [13] 104 % of control | [14] 105 % of control | [15] 101 % of control

CCCCNC(=S)NNc1nc(N(CC)CC)nc(N(CC)CC)n1
inactive: [16] 99 % of control | [17] 99 % of control

C(=N\Nc1nnc(-c2ccccc2)c(-c2ccccc2)n1)/c1cccnc1
inactive: dose: 12.5 mg/kg/injection, schedule: Q01DX005 (ip), vehicle: saline with Tween-80 86 % of control | dose: 25.0 mg/kg/injection, schedule: Q01DX005 (ip), vehicle: saline with Tween-80 96 % of control | [1] 89 % of control | [3] 90 % of control

CSc1nc(C)c(Br)c(Sc2nc(N)nc3nc[nH]c23)n1
inactive: dose: 12.5 mg/kg/injection, schedule: Q01DX009 (ip), vehicle: saline with Tween-80 104 % of control | [18] 113 % of control and 122 % of control | [19] 95 % of control

CC[Si](C#CCOc1ccccc1C1OCCO1)(CC)CC
inactive: [13] 105 % of control | [14] 101 % of control | [15] 99 % of control

O=C1c2cccc(O)c2C(=O)c2c(OC3OC(CO)C(OC4OC(CO)C(O)C(O)C4O)C(O)C3O)cccc21 (stereo not drawn)
inactive: dose: 12.5 mg/kg/injection, schedule: Q04DX003 (ip), vehicle: saline with Tween-80 100 % of control | dose: 25.0 mg/kg/injection, schedule: Q04DX003 (ip), vehicle: saline with Tween-80 100 % of control | [9] 104 % of control | [20] 99 % of control | [10] 107 % of control | [11] 102 % of control

CCOC(=S)/N=C1/SCS(=O)(=O)N1c1ccccc1
inactive: [20] 99 % of control | dose: 100.0 mg/kg/injection, schedule: Q04DX003 (ip), vehicle: saline with Tween-80 95 % of control | [19] 98 % of control

O=C1NC2CC1C(O)C2O (stereo not drawn)
inactive: dose: 60.0 mg/kg/injection, schedule: Q01DX005 (ip), vehicle: saline 101 % of control | dose: 120.0 mg/kg/injection, schedule: Q01DX005 (ip), vehicle: saline 101 % of control | dose: 240.0 mg/kg/injection, schedule: Q01DX005 (ip), vehicle: saline 100 % of control

COC(=O)c1ccoc1
inactive: [18] 96 % of control | [9] 116 % of control | [21] 108 % of control | [22] 123 % of control | [11] 113 % of control | [12] 107 % of control

CC(C)(C)C1CS1 (stereo not drawn)
inactive: [1] 107 % of control | [2] 107 % of control | [3] 117 % of control

NC(=O)c1[nH]c(N=Nc2ccccc2)nc1N
inactive: dose: 100.0 mg/kg/injection, schedule: Q04DX003 (ip), vehicle: Klucel (hydroxypropylcellulose) (HPC) 102 % of control | dose: 200.0 mg/kg/injection, schedule: Q04DX003 (ip), vehicle: Klucel (hydroxypropylcellulose) (HPC) 102 % of control | dose: 400.0 mg/kg/injection, schedule: Q04DX003 (ip), vehicle: Klucel (hydroxypropylcellulose) (HPC) 103 % of control

CSCc1cc(C)ccc1NC(C)=O
inactive: dose: 50.0 mg/kg/injection, schedule: Q04DX002 (ip), vehicle: saline with Tween-80 98 % of control | dose: 100.0 mg/kg/injection, schedule: Q01DX001 (ip), vehicle: saline with Tween-80 99 % of control | [16] 98 % of control | dose: 200.0 mg/kg/injection, schedule: Q01DX001 (ip), vehicle: saline with Tween-80 99 % of control | [17] 102 % of control | dose: 400.0 mg/kg/injection, schedule: Q01DX001 (ip), vehicle: saline with Tween-80 100 % of control

COc1ccc2nonc2c1
inactive: [4] 103 % of control | [5] 103 % of control | dose: 400.0 mg/kg/injection, schedule: Q01DX001 (ip), vehicle: saline 105 % of control

O=C(O)c1ccc2cc3ccccc3cc2c1
inactive: [21] 99 % of control | [22] 91 % of control

COc1ccc(C2c3cc4c(cc3OC(C)(O)C2C)OCO4)cc1 (stereo not drawn)
inactive: [6] 95 % of control | [7] 98 % of control | [8] 93 % of control

Nc1ncnc2c1ccn2C1OC(CO)C(O)C1O (stereo not drawn)
inactive: dose: 0.44 mg/kg/injection, schedule: Q01DX001 (ip), vehicle: saline 120 % of control | dose: 0.5 mg/kg/injection, schedule: Q01DX009 (ip), vehicle: water 113 % of control | dose: 0.88 mg/kg/injection, schedule: Q01DX001 (ip), vehicle: saline 110 % of control | dose: 8.0 mg/kg/injection, schedule: Q01DX010 (sc), vehicle: saline 105 % of control | dose: 16.0 mg/kg/injection, schedule: Q01DX010 (sc), vehicle: saline 110 % of control | dose: 55.0 micrograms/kg/injection, schedule: Q07DX Z (ip), vehicle: saline 90 % of control | dose: 110.0 micrograms/kg/injection, schedule: Q07DX Z (ip), vehicle: saline 105 % of control | dose: 220.0 micrograms/kg/injection, schedule: Q07DX Z (ip), vehicle: saline 105 % of control | dose: 440.0 micrograms/kg/injection, schedule: Q07DX Z (ip), vehicle: saline 105 % of control
